These results are taken from US20230256110A1, “COMBINATION OF ANTIBODY-DRUG CONJUGATE AND ATM INHIBITOR” (AstraZeneca UK Limited, priority 2020, published 2023).

One assay concerns ATM signaling. Description: Inhibition of ATM signaling, antibody blots of whole-cell extracts. The format is cell-based. Here is the method:
Gastric cancer NCI-N87 and breast carcinoma KPL4 cell lines were cultured in RPMI 1640 supplemented with 10% FCS in a humidified incubator at 37° C. with 5% CO2. Cells were plated in 6-well plates at optimal density to allow linear proliferation for the duration of the assay. […] 7 h, 24 h or 48 h after dosing, whole-cell extracts were obtained by lysis in 50 mM Tris-HCl pH 7.5, 2% SDS containing protease and phosphatase inhibitors. Lysates were boiled for 5 minutes at 95° C. Protein concentration was measured using a Nanodrop at […] and 50 μg of lysate were loaded in 4-12% Bis Tris gels. Proteins were transferred using iblot2. Primary antibodies (see Table 7) were incubated overnight at 4° C. in 3% milk TBS-tween 0.05% and HRP-conjugated secondary antibodies for 1 h at room temperature. Blots were imaged using a G-box.

The subject of a further assay is T47D cell line. The assay is described as follows: High-throughput combination screen, 7-day cell titer-glo cell viability assay. The following applies: within the selected concentration range. The assay is classed as cell-based. An excerpt: (§1) In addition, trastuzumab and exatecan (DNA topoisomerase I inhibitor) were also screened in parallel with AZD1390.
(§2) • Loewe Dose Additivity predicts the expected response if the two compounds act on the same molecular target by means of the same mechanism. It calculates additivity based on the assumption of zero interaction between the compounds and it is independent from the nature of the dose-response relationship. • HSA (Highest Single Agent) [Berenbaum 1989] quantifies the higher of the two single compound effects at their corresponding concentrations. The combined effect is compared with the effect of each single agent at the concentration used in the combination. Excess over the highest single agent effect indicates cooperativity. […] The predicted values are determined by the chosen model. Differences between the predicted and observed values may indicate synergy or antagonism, and are shown in the Excess Matrix. Excess Matrix values are summarized by the combination scores Excess Volume and Synergy Score.
For orientation: Cellular ATP, detected with luciferase, serves as a proxy for viable cell number.

The subject of assay [1] is NCI-N87 cell line. The assay is described as above. The assay is classed as cell-based. The following applies: within the selected concentration range.
From the text: as §1, §2

Assay [2] concerns KPL4 cell line. Described as above. The assay is classed as cell-based. The conditions noted are these: within the selected concentration range.
From the text: as §1, §2

The test system of assay [3] is MDA-MB-468 cell line. The assay is described as above. The assay is classed as cell-based. The following applies: within the selected concentration range.
From the text: as §1, §2

Assay [4] relates to NCI-N87 tumours implanted subcutaneously. The assay is described as follows: NCI-N87 xenograft antitumor test in vivo. The conditions noted are these: AZD1390 10 mg/kg PO QD × 28; day 40 post treatment. More on the design: species or system Female Nude mice.
The subject of another assay is SK-OV-3 cell line. The assay is described as follows: Growth inhibition by total cell (nuclear) count, 96-well imaging. The assay is classed as cell-based. The following applies: Homo sapiens; monotherapy; SK-OV-3, ovarian, HER2 Moderate; 4 to 8 days. Here is the method:
(§3) Cells grown in their respective conditions were plated in 96-well plates at optimal density to allow linear proliferation for the duration of the assay (4 to 8 days; duration of treatment is dependent on the growth rate of each cell line). Immediately after plating, the cells were dosed with the indicated compounds for a total volume of 200 μL/well and placed in the incubator. Combinations were conducted as a 6×8 concentration response matrix for each combination. At the endpoint, the cells were fixed in 2% PFA for 20 minutes at room temperature. In order to obtain the number of cells at the start of treatment, one additional plate was used for each experiment and fixed after cells attached. The cells were then permeabilised in 0.5% Triton-X100 in PBS for 10 minutes. After a PBS wash, the cells were blocked in 5% FBS in PBS 1 h at RT and incubated with primary antibodies in 5% FBS+0.05% triton overnight at 4° C. After 3 washes in PBS cells were incubated with secondary antibodies in 5% FBS+0.05% triton with Hoechst33258 for 1 h at room temperature. After 3 washes in PBS, the cells were scanned with a Cellinsight instrument with a 10×objective and 9 fields/well. Images were analysed using Columbus for cell count based on nuclear Hoechst staining and nuclear intensity of other biomarkers investigated. The total cell count/well was used to calculate the relative growth in each well compared to solvent control. […] The mean/well of the sum of the nuclear intensity of the IF biomarkers was also expressed relative to solvent control.

The test system of assay [5] is NCI-N87 cell line. The assay is described as above. The assay is classed as cell-based. The conditions noted are these: Homo sapiens; monotherapy; NCI-N87, gastric, HER2 High; 4 to 8 days. Here is the method:
as §3

In another assay the test system is JIMT-1 cell line. Described as above. The assay is classed as cell-based. The conditions noted are these: Homo sapiens; monotherapy; JIMT-1, breast, HER2 Expressed; 4 to 8 days. Here is the method: as §3
Assay [6] concerns KPL4 cell line. Described as above. The assay is classed as cell-based. The conditions noted are these: monotherapy; KPL4, breast, HER2 High; 4 to 8 days. Here is the method: as §3
Assay [7] concerns MDA-MB-468 cell line. Described as above. The conditions noted are these: Homo sapiens; monotherapy; MDA-MB-468, breast, HER2 Low; 4 to 8 days. The format is cell-based. Here is the method: as §3
The subject of the next assay is DU145 cell line. The description is as above. The format is cell-based. The conditions noted are these: Homo sapiens, DU-145; monotherapy; DU145, prostate, HER2 Low; 4 to 8 days. Here is the method:
as §3

Assay [8] has as its system DU145-SLFN11 KO (CRISPR-Cas9 gene knockout of SLFN11). The description is as above. The format is cell-based. The conditions noted are these: monotherapy, prostate, HER2 Low, 4 to 8 days. Here is the method:
as §3

A further assay has as its system KAP1 pSer824, γH2AX. The assay is described as follows: Immunofluorescence biomarkers of ATM activation and DNA damage in KPL4 cells. The format is cell-based. The conditions noted are these: high-HER2 KPL4. Here is the method:
Cells grown in their respective conditions were plated in 96-well plates at optimal density to allow linear proliferation for the duration of the assay (4 to 8 days; duration of treatment is dependent on the growth rate of each cell line). Immediately after plating, the cells were dosed with the indicated compounds for a total volume of 200 μL/well and placed in the incubator. Combinations were conducted as a 6×8 concentration response matrix for each combination. At the endpoint, the cells were fixed in 2% PFA for 20 minutes at room temperature. In order to obtain the number of cells at the start of treatment, one additional plate was used for each experiment and fixed after cells attached. The cells were then permeabilised in 0.5% Triton-X100 in PBS for 10 minutes. After a PBS wash, the cells were blocked in 5% FBS in PBS 1 h at RT and incubated with primary antibodies in 5% FBS+0.05% triton overnight at 4° C. After 3 washes in PBS cells were incubated with secondary antibodies in 5% FBS+0.05% triton with Hoechst33258 for 1 h at room temperature. After 3 washes in PBS, the cells were scanned with a Cellinsight instrument with a 10×objective and 9 fields/well. Images were analysed using Columbus for cell count based on nuclear Hoechst staining and nuclear intensity of other biomarkers investigated. […]

The mark [9] stands for this setting: NCI-N87 and KPL4, AZD1390 at 100 nM combined with DS-8201 or exatecan mesylate.

“Also recorded” adds a separate entry of the source. Counter-ions that a name gives are not always drawn.

In the case of `CC(C)n1c(=O)n(C)c2cnc3cc(F)c(-c4ccc(OCCCN5CCCCC5)nc4)cc3c21` [AZD1390, 7-fluoro-1-isopropyl-3-methyl-8-[6-[3-(1-piperidyl)propoxy]-3-pyridyl]imidazo[4,5-c]quinolin-2-one], in the assay with ATM signaling (setting [9]), the “DNA damage (pRPA, gH2AX)” value is listed as “exacerbating the DNA damage”. The “activation of pATM, pChk2, and pKAP1” value in the assay with ATM signaling (setting [9]) was “inhibited the activation of pATM, pChk2, and pKAP1; also recorded: inhibits DS-8201-induced ATM signaling”. The “cell death (cCasp3)” value in the assay with ATM signaling (setting [9]) is listed as “increased cell death”. Besides, the “Single agent activity (cell viability)” value with T47D cell line, with NCI-N87 cell line [1], in the assay with KPL4 cell line [2] and with MDA-MB-468 cell line [3] was “not active” in each case. In addition, the “Best response % TGI/regression” value in [4] was determined as 37%. Moreover, the GI50 in the assay with SK-OV-3 cell line, with NCI-N87 cell line [5], in the assay on JIMT-1 cell line, with KPL4 cell line [6] and in the assay with MDA-MB-468 cell line [7] was greater than 100 nM each time.
With `CC[C@@]1(O)C(=O)OCc2c1cc1n(c2=O)Cc2c-1nc1cc(F)c(C)c3c1c2[C@@H](N)CC3` [Exatecan mesylate, (1S,9S)-1-amino-9-ethyl-5-fluoro-1,2,3,9,12,15-hexahydro-9-hydroxy-4-methyl-10H,13H-benzo[de]pyrano[3′,4′:6,7]indolizino[1,2-b]quinolin-10,13-dione, reference compound], in the assay on ATM signaling (Her2-high NCI-N87 and KPL4, DS-8201 at 30 μg/mL or exatecan mesylate alone), the “activation of the ATM pathway (pATM-S1981, pChk2-T68, pKap1-S824)” value is recorded as “induced activation of the ATM pathway”. In addition, the GI50 – broadly, the concentration at which growth is held to half of that of the control – is 0.914 nM in the assay with SK-OV-3 cell line; 0.564 nM in the assay on DU145 cell line; 0.503 nM in the assay with NCI-N87 cell line [5]; 0.45 nM in [8]; 0.745 nM with JIMT-1 cell line; 1.18 nM with KPL4 cell line [6]. In addition, in the assay on MDA-MB-468 cell line [7], the GI50 is 0.162 nM. The “biomarkers of ATM (KAP1 pSer824) activation and DNA strand breaks (yH2AX)” value with KAP1 pSer824, γH2AX is listed as “induced in a concentration dependent manner”.
